Assays:
[1] = system: brain vasculature; experiment: Brain vasculature NIR fluorescence imaging (FLARE); type: in vivo; conditions: 25 g male mouse, 25 nmol intravenously, 4 hours; Channel 1 (700 nm)
Protocol: (§1) Absorbance and fluorescence emission spectra were measured using fiber optic HR2000 absorbance (200-1100 nm) and USB2000FL fluorescence (350-1000 nm) spectrometers (Ocean Optics, Dunedin, Fla.). Excitation was provided by a 532 nm green laser pointer (Opcom Inc., Xiamen, China) set to 5 mW, a 655 nm red laser pointer (Opcom Inc., Xiamen, China) set to 5 mW, or a 770 nm NIR laser diode light source (Electro Optical Components, Santa Rosa, Calif.) set to 10 mW and coupled through a 300 μm core diameter, NA 0.22 fiber (Fiberguide Industries, Stirling, N.J.). In silico calculations of the partition coefficient (log D at pH 7.4) and surface molecular charge and hydrophobicity were calculated using MarvinSketch 5.2.1 by taking major microspecies at pH 7.4 (ChemAxon, Budapest, Hungary). NIR Fluorescence Imaging System The dual-NIR channel FLARE′ imaging system has been described in detail previously (26-28). […] Color and two independent NIR fluorescence emission images (≈700 nm for Channel 1 and ≈800 nm for Channel 2) were acquired simultaneously with custom software at rates up to 15 Hz over a 15 cm diameter field of view. NIR fluorescence from Channel 1 was pseudo-colored in red and NIR fluorescence from Channel 2 was pseudo-colored in lime green prior to merger with the color video image. […] Animal Models and Intraoperative NIR Fluorescence Imaging […]

[2] = system: Peyer's patches; experiment: Peyer's patches NIR fluorescence imaging (FLARE); type: in vivo; conditions: 250 g male rat, 100 nmol intravenously, 4 hours; Channel 2 (800 nm)
Protocol: as §1

[3] = system: stem cells; experiment: Stem cell tracking: NIR fluorescence microscopy of labelled cells; type: cell-based; conditions: 2 μM, 30 min incubation at 37° C., fixed in 2% paraformaldehyde, 10 μm sections; fluorescence microscope Channel 1 (700 nm) or Channel 2 (800 nm)
[4] = system: neuroendocrine tumors (insulinoma); experiment: Neuroendocrine tumor NIR fluorescence imaging (FLARE); type: in vivo; conditions: 25 g male insulinoma-bearing mouse, 140 nmol intravenously, 1 hour, pancreas imaged; Channel 1 (700 nm) or Channel 2 (800 nm)
Protocol: as §1

[5] = system: spinal cartilage; experiment: Cartilage NIR fluorescence imaging (FLARE); type: in vivo; conditions: 35 kg female pig, 5 μmol intravenously, 4 hours, Channel 1 (700 nm) or Channel 2 (800 nm)
Protocol: as §1

[6] = system: bone (rib cage); experiment: Bone NIR fluorescence imaging (FLARE); type: in vivo; conditions: 35 kg female pig, 5 μmol intravenously, 4 hours, Channel 1 (700 nm) or Channel 2 (800 nm)
Protocol: as §1

[7] = system: CSF; experiment: CSF NIR fluorescence imaging (FLARE); type: in vivo; conditions: 35 kg female pig, 5 μmol intravenously, 4 hours; Channel 1 (700 nm) or Channel 2 (800 nm)
Protocol: as §1

[8] = system: SLN; experiment: Sentinel lymph node (SLN) NIR fluorescence imaging (FLARE); type: in vivo; conditions: 35 kg female pig, 5 nmol subcutaneously into bowel, 5 min; Channel 1 (700 nm) or Channel 2 (800 nm)
Protocol: as §1

[9] = system: ovaries; experiment: Ovary NIR fluorescence imaging (FLARE); type: in vivo; conditions: 25 g female mouse, 25 nmol intravenously, 4 hours; Channel 1 (700 nm) or Channel 2 (800 nm)
Protocol: as §1

[10] = system: gallbladder; experiment: Gallbladder NIR fluorescence imaging (FLARE); type: in vivo; conditions: 25 g male mouse, 25 nmol intravenously, 4 hours; Channel 1 (700 nm) or Channel 2 (800 nm)
Protocol: as §1

[11] = system: prostate; experiment: Prostate NIR fluorescence imaging (FLARE); type: in vivo; conditions: 25 g male mouse, 25 nmol intravenously, 4 hours; Channel 1 (700 nm) or Channel 2 (800 nm)
Protocol: as §1

[12] = system: pan lymph nodes; experiment: Pan lymph node NIR fluorescence imaging (FLARE); type: in vivo; conditions: 250 g male rat, 20 nmol intravenously, 4 hours; Channel 1 (700 nm) or Channel 2 (800 nm)
Protocol: as §1

## CNCCCN1/C(=C/C=C/C=C/c2sc3cc(O)ccc3[n+]2CCCNC)Sc2cc(O)ccc21 [ZK214]
[1]
  NIR fluorescence contrast of the brain vasculature: highlighted with high contrast

## CC1(C)C(/C=C/C=C/C=C/C=C2/N(CCC[N+](C)(C)C)c3ccccc3C2(C)C)=[N+](CCC[N+](C)(C)C)c2ccccc21 [AL30]
[2]
  NIR fluorescence contrast of the Peyer's patches: highlighted with high contrast

## CCN1/C(=C/C=C2\CCCC(/C=C/C3=[N+](CC)c4ccccc4C3(C)C)=C2Oc2ccc(CCN)cc2)C(C)(C)c2ccccc21 [PS126]
[3]
  NIR fluorescence contrast of the cytoplasm of cell: highlighted with high contrast

## CN(C)c1ccc2nc3ccc(=[N+](C)C)cc-3oc2c1 [ESS61]
[4]
  NIR fluorescence contrast of the tumors: highlighted with high contrast

## CC1(C)C(/C=C/C2=C(Sc3ccc(CCN)cc3)C(=C/C=C3/N(CCC[N+](C)(C)C)c4ccc(S(=O)(=O)O)cc4C3(C)C)/CCC2)=[N+](CCC[N+](C)(C)C)c2ccc(S(=O)(=O)O)cc21 [LN50]
[5]
  NIR fluorescence contrast of the cartilage: highlighted with high contrast

## C[N+](C)(C)CCCN1/C(=C/C=C/C=C/c2sc3cc(O)ccc3[n+]2CCC[N+](C)(C)C)Sc2cc(O)ccc21 [SP56]
[5]
  NIR fluorescence contrast of the cartilage: highlighted with high contrast

## CC1(C)C(/C=C/C(C/C=C2/N(CCCP(=O)(O)O)c3ccc(S(=O)(=O)[O-])cc3C2(C)C)c2ccc(CCC(=O)O)cc2)=[N+](CCCP(=O)(O)O)c2ccc(S(=O)(=O)O)cc21 (stereo not shown) [P700SO3]
[6]
  NIR fluorescence contrast of the bone: highlighted with high contrast

## CN1/C(=C/C=C/C=C/C=C/C2=[N+](C)c3ccccc3C2(C)C)C(C)(C)c2ccccc21 [AL20]
[7]
  NIR fluorescence contrast of the CSF: highlighted with high contrast
[4]
  NIR fluorescence contrast of the tumors: highlighted with high contrast

## CCN1/C(=C/C=C/C=C/C2=[N+](CC)c3ccc4ccccc4c3C2(C)C)C(C)(C)c2c1ccc1ccccc21 [MHI86]
[8]
  NIR fluorescence contrast of the SLN: highlighted with high contrast

## CCN1/C(=C/C=C(/C=C/C2=[N+](CC)c3ccccc3C2(C)C)Oc2ccc(CCN)cc2)C(C)(C)c2ccccc21 [PS127]
[3]
  NIR fluorescence contrast of the cytoplasm of cell: highlighted with high contrast

## CCN(CC)c1ccc(/C=C/C2=CC(/C=C/c3ccc(N(CC)CC)cc3O)=[O+][B-](F)(F)O2)c(O)c1 [PS62]
[9]
  NIR fluorescence contrast of the ovaries: highlighted with high contrast
[10]
  NIR fluorescence contrast of the gallbladder: highlighted with high contrast
[11]
  NIR fluorescence contrast of the prostate: highlighted with high contrast

## CC1(C)C(/C=C/C2=C(Oc3ccc(CCC(=O)O)cc3)C(=C/C=C3/N(CCC[N+](C)(C)C)c4ccccc4C3(C)C)/CCC2)=[N+](CCC[N+](C)(C)C)c2ccccc21 [MM25]
[12]
  NIR fluorescence contrast of all lymph nodes: highlighted with high contrast
[8]
  NIR fluorescence contrast of the SLN: highlighted with high contrast

Source: patent US11077210B2, “Near-infrared fluorescent contrast bioimaging agents and methods of use thereof” (Beth Israel Deaconess Medical Center, priority 2013, dated 2021)
